Results on seven compounds are retold here after publication PMC7170299, “Design, synthesis, molecular modelling and biological evaluation of novel 3-(2-naphthyl)-1-phenyl-1H-pyrazole derivatives as potent antioxidants and 15-Lipoxygenase inhibitors” (Journal of Enzyme Inhibition and Medicinal Chemistry, 2020).

As usually defined, the IC50 is the midpoint of a concentration-inhibition curve. A high value points to lower potency.

The structures appear in SMILES notation.

The target of one assay is T1, Soybean 15-LOX enzyme (Glycine max, UniProt P08170).
T1 construct: purchased Cayman Chemical 760700
T1 sequence (P08170 1-839): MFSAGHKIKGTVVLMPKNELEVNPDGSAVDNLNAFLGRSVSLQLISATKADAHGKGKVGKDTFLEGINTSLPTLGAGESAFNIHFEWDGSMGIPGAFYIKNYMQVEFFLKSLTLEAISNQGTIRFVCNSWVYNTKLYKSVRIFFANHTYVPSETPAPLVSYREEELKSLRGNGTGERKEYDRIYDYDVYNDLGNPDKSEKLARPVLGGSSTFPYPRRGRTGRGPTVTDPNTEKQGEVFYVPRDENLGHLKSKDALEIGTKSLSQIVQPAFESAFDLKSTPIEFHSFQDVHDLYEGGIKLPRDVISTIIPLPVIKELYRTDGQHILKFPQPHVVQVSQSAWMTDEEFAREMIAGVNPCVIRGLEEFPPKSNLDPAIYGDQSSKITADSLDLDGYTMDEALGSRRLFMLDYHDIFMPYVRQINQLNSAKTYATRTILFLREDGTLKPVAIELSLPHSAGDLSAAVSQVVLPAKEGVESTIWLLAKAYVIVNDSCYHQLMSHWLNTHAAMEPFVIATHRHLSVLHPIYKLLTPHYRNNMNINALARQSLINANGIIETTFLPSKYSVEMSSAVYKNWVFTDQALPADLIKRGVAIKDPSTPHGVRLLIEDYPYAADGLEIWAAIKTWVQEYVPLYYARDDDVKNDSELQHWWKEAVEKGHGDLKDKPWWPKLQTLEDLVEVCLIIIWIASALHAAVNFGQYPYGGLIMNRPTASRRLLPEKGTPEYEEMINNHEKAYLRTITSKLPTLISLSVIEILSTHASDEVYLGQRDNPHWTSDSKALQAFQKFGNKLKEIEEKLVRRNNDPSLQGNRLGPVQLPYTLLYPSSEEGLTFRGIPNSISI
The assay can be described thus: In vitro lipoxygenase inhibition (Cayman lipoxygenase inhibitor screening assay kit). The conditions noted are these: for IC50: mean ± SEM of three experiments, substrate arachidonic acid; for 15-LOX inhibition potency relative to quercetin: folds that of quercetin. The format is biochemical. The method, then:
The assay was performed using Cayman’s lipoxygenase inhibitor screening assay kit (Catalog No. 760700, Cayman Chemical, USA) according to the manufacturer’s instructions. Briefly, 90 µL of 15-LOX was pipetted into a 96-well plate. Next, 10 µL of test compound at concentrations (2.5, 5.0 and 10 µM) dissolved in DMSO were added to each well. The reaction was initiated by adding 10 µL substrate (AA) and the plate was placed on a shaker for at least 5 minutes. Finally, 100 µL of chromogen (prepared according to manufacturer’s instructions) was added to each well to stop enzyme catalysis and develop the reaction. 100 µL of Assay buffer (0.1 M Tris-HCl, pH7.4) was used in blank wells. […] The absorbance of the solution was measured at λ 490–500 nm. The percentage inhibition was calculated according to the following equation: % inhibition =[(IA−Ainhibitor sample)/IA]×100 where (IA) is the 100% initial activity and (Ainhibitor sample) is the absorbance of the test sample. Dose–response curve was plotted between % inhibition and the drug concentration. The non-linear dose–response curve was used for calculating drug concentration showing 50% enzyme inhibition.

Assay [1] can be described thus: NO scavenging assay (sodium nitroprusside / Griess reagent). To be noted: mean ± SEM of three experiments; 90 min, 546 nm.
The nature of assay [2]: DPPH radical scavenging assay. To be noted: mean ± SEM of three experiments; 30 min, 517 nm. For orientation: Loss of DPPH colour is used to gauge radical scavenging.

In turn, `c1ccc(C2=NNC(c3cn(-c4ccccc4)nc3-c3ccc4ccccc4c3)C2)cc1` (centres unmarked) [Compound 3a, 3′-Naphthalen-2-yl-5,1′-diphenyl-3,4-dihydro-2H,1’H-[3,4′]bipyrazole] had an IC50 at Soybean 15-LOX enzyme of 2.23 ± 0.07 µM. In addition, in assay [1], the “NO IC50” value is 27.65 ± 1.53 µg/mL. Besides, in assay [2], the “DPPH IC50” value came to 13.99 ± 0.78 µg/mL.

For the compound `Clc1ccc(C2=NN(c3ccccc3)C(c3cn(-c4ccccc4)nc3-c3ccc4ccccc4c3)C2)cc1Cl` (centres unmarked) [Compound 4e, 5-(3,4-Dichlorophenyl)-3′-naphthalen-2-yl-2,1′-diphenyl-3,4-dihydro-2H,1’H-[3,4′]-bipyrazole], half-maximal inhibition at Soybean 15-LOX enzyme (IC50) was put at 3.53 ± 0.07 µM. For the same compound, the “NO IC50” value in assay [1] was found to be 57.01 ± 1.29 µg/mL. The “DPPH IC50” value in assay [2] came to 19.56 ± 1.06 µg/mL.

The compound `COc1ccc(C2=NOC(c3cn(-c4ccccc4)nc3-c3ccc4ccccc4c3)C2)cc1` (centres unmarked) [Compound 5b, 3-(4-Methoxyphenyl)-5-(3-naphthalen-2-yl-1-phenyl-1H-pyrazol-4-yl)-4,5-dihydro isoxazole] yielded an IC50 on Soybean 15-LOX enzyme of 4.37 ± 0.09 µM. The “NO IC50” value in assay [1] is listed as 75.53 ± 1.43 µg/mL. In addition, in assay [2], the “DPPH IC50” value was 46.62 ± 1.63 µg/mL.

The compound `Cc1ccc(C2=NOC(c3cn(-c4ccccc4)nc3-c3ccc4ccccc4c3)C2)cc1` (centres unmarked) [Compound 5c, 5-(3-Naphthalen-2-yl-1-phenyl-1H-pyrazol-4-yl)-3-p-tolyl-4,5-dihydroisoxazole] yielded an IC50 against Soybean 15-LOX enzyme of 4.23 ± 0.07 µM. Also, in assay [1], the “NO IC50” value worked out at 38.99 ± 1.31 µg/mL. Further, the “DPPH IC50” value in assay [2] was 47.27 ± 1.13 µg/mL.

For the compound `NC(=S)N1N=C(c2ccccc2)CC1c1cn(-c2ccccc2)nc1-c1ccc2ccccc2c1` (centres unmarked) [Compound 6a, 3′-Naphthalen-2-yl-5,1′-diphenyl-3,4-dihydro-1’H-[3,4′]bipyrazolyl-2-carbothioic acid amide], on Soybean 15-LOX enzyme, the “15-LOX inhibition potency relative to quercetin” value turned out to be 2.2 folds and the IC50 came out at 1.5 ± 0.06 µM. The “NO IC50” value in assay [1] is on record as 36.37 ± 0.75 µg/mL. Further, in assay [2], the “DPPH IC50” value came to 20.47 ± 1.43 µg/mL.

Take `Cc1ccc(C2=NN(C(N)=S)C(c3cn(-c4ccccc4)nc3-c3ccc4ccccc4c3)C2)cc1` (centres unmarked) [Compound 6c, 3′-Naphthalen-2-yl-1′-phenyl-5-p-tolyl-3,4-dihydro-1’H-[3,4′]bipyrazolyl-2-carbo thioic acid amide]: the IC50 against Soybean 15-LOX enzyme stood at 2.1 ± 0.06 µM. For the same compound, the “NO IC50” value in assay [1] is on record as 23.79 ± 0.83 µg/mL. Further, the “DPPH IC50” value in assay [2] stood at 18.98 ± 1.73 µg/mL.

Regarding `NC(=S)N1N=C(c2ccc(Cl)c(Cl)c2)CC1c1cn(-c2ccccc2)nc1-c1ccc2ccccc2c1` (centres unmarked) [Compound 6e], at Soybean 15-LOX enzyme, the “15-LOX inhibition potency relative to quercetin” value came to 2.1 folds and the midpoint of inhibition, the IC50, lay at 1.57 ± 0.03 µM. Further, the “NO IC50” value in assay [1] turned out to be 71.39 ± 1.25 µg/mL. For the same compound, the “DPPH IC50” value in assay [2] was 9.66 ± 0.34 µg/mL.
